The results in this text go back to patent US20170334899A1, “AMINO-SUBSTITUTED ISOTHIAZOLES” (Bayer Pharma Aktiengesellschaft, priority 2014, published 2017).

Like-named read-outs stand apart in the source and are kept apart here.

One assay addresses T1, CDK2/CycE (Homo sapiens, UniProt P24941).
T1 construct: GST; purchased ProQinase GmbH (Freiburg, Germany); host or cells: insect cells (Sf9)
As to the kind of experiment: CDK2/CycE kinase assay (TR-FRET). The following applies: avg, read-out: CDK2 avg (IC50 [mol/l]). The class given is biochemical. An excerpt:
CDK2/CycE -inhibitory activity of compounds of the present invention was quantified employing the CDK2/CycE TR-FRET assay as described in the following paragraphs.
Recombinant fusion proteins of GST and human CDK2 and of GST and human CycE, expressed in insect cells (Sf9) and purified by Glutathion-Sepharose affinity chromatography, were purchased from ProQinase GmbH (Freiburg, Germany). As substrate for the kinase reaction biotinylated peptide biotin-Ttds-YISPLKSPYKISEG (C-terminus in amid form) was used which can be purchased e.g. form the company JERINI peptide technologies (Berlin, Germany).
For the assay 50 nl of a 100fold concentrated solution of the test compound in DMSO was pipetted into a black low volume 384we11 microtiter plate (Greiner Bio-One, Frickenhausen, Germany), 2 μl of a solution of CDK2/CycE in aqueous assay buffer [50 mM Tris/HCl pH 8.0, 10 mM MgCl2, 1.0 mM dithiothreitol, 0.1 mM sodium ortho-vanadate, 0.01% (v/v) Nonidet-P40 (Sigma)] were added and the mixture was incubated for 15 min at 22° C. to allow pre-binding of the test compounds to the enzyme before the start of the kinase reaction. Then the kinase reaction was started by the addition of 3 μl of a solution of adenosine-tri-phosphate (ATP, 16.7 μM=>final conc. in the 5 μl assay volume is 10 μM) and substrate (1.25 μM=>final conc. in the 5 μl assay volume is 0.75 μM) in assay buffer and the resulting mixture was incubated for a reaction time of 25 min at 22° C. The concentration of CDK2/CycE was adjusted depending of the activity of the enzyme lot and was chosen appropriate to have the assay in the linear range, typical concentrations were in the range of 130 ng/ml. The reaction was stopped by the addition of 5 μl of a solution of TR-FRET detection reagents (0.2 μM streptavidine-XL665 [Cisbio Bioassays, Codolet, France] and 1 nM anti-RB(pSer807/pSer811)-antibody from BD Pharmingen [#558389] and 1.2 nM LANCE EU-W1024 labeled anti-mouse IgG antibody [Perkin-Elmer, product no. AD0077, as an alternative a Terbium-cryptate-labeled anti-mouse IgG antibody from Cisbio Bioassays can be used]) in an aqueous EDTA-solution (100 mM EDTA, 0.2% (w/v) bovine serum albumin in 100 mM HEPES/NaOH pH 7.0).
The resulting mixture was incubated 1 h at 22° C. to allow the formation of complex between the phosphorylated biotinylated peptide and the detection reagents. Subsequently the amount of phosphorylated substrate was evaluated by measurement of the resonance energy transfer from the Eu-chelate to the streptavidine-XL. Therefore, the fluorescence emissions at 620 nm and 665 nm after excitation at 350 nm was measured in a TR-FRET reader, e.g. a Rubystar (BMG Labtechnologies, Offenburg, Germany) or a Viewlux (Perkin-Elmer). The ratio of the emissions at 665 nm and at […] was taken as the measure for the amount of phosphorylated substrate. The data were normalised (enzyme reaction without inhibitor=0% inhibition, all other assay components but no enzyme=100% inhibition).

The subject of another assay is HeLa. As to the kind of experiment: Proliferation assay (crystal violet), HeLa. The class given is cell-based. The following applies: HeLa cells, 4 days incubation, crystal violet staining, read-out: IC50 inhibition of proliferation, HeLa. The essentials: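 Tumor cells seeded at 1000–5000 cells/well in medium with 10% FCS; after 24 h, compounds added at 0.001–10 μM (0.5% DMSO) for 4 days. Cells fixed with glutaraldehyde, stained with crystal violet, dye dissolved in acetic acid and read at 595 nm. IC50 from 4-parameter fit, normalized to zero-point plate and untreated cells.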

Consider `COC(=O)CNC(=O)c1cccc(NC(=O)c2c(C)nsc2Nc2cnc3ccccc3n2)c1` [Example 100, Methyl N-[3-({[3-methyl-5-(quinoxalin-2-ylamino)-1,2-thiazol-4-yl]carbonyl}amino)-benzoyl]glycinate], for which the IC50 on CDK2/CycE was at least 20 µM; in the assay on HeLa (Homo sapiens, HeLa, 96 h), 10 µM.

In the case of `Cc1nsc(Nc2cnc(C(F)(F)F)cn2)c1C(=O)Nc1ccc(OC2CCN(CCF)CC2)c(F)c1` [Example 162, N-(3-fluoro-4-{[1-(2-fluoroethyl)piperidin-4-yl]oxy}phenyl)-3-methyl-5-{[5-(trifluoromethyl)pyrazin-2-yl]amino}-1,2-thiazole-4-carboxamide], the IC50 at CDK2/CycE was over 20 µM; in the assay on HeLa (Homo sapiens, HeLa, 96 h), 0.33 µM.

As to `Cc1nsc(Nc2cnc(C(F)(F)F)cn2)c1C(=O)Nc1ccc(C(=O)NC2CCN(CC(F)(F)F)CC2)cc1` [Example 165, 3-methyl-N-(4-{[1-(2,2,2-trifluoroethyl)piperidin-4-yl]carbamoyl}phenyl)-5-{[5-(trifluoromethyl)pyrazin-2-yl]amino}-1,2-thiazole-4-carboxamide], the IC50 at CDK2/CycE is over 20 µM; in the assay with HeLa (Homo sapiens, HeLa, 96 h) it was 3.2 µM.

Take `Cc1nsc(Nc2cnc(C(F)(F)F)cn2)c1C(=O)Nc1ccc(OC2CCN(C(C)C)CC2)nc1` [Example 160, N-{6-[(1-isopropylpiperidin-4-yl)oxy]pyridin-3-yl}-3-methyl-5-{[5-(trifluoromethyl)pyrazin-2-yl]amino}-1,2-thiazole-4-carboxamide]: the IC50 on CDK2/CycE was over 20 µM; in the assay with HeLa (Homo sapiens, HeLa, 96 h), 3.3 µM.

On to `CCNS(=O)(=O)c1ccc(NC(=O)c2c(C)nsc2Nc2cnc3ccccc3n2)cc1` [Example 116, N-[4-(Ethylsulfamoyl)phenyl]-3-methyl-5-(quinoxalin-2-ylamino)-1,2-thiazole-4-carboxamide], for which the IC50 on CDK2/CycE was at least 20 µM; with HeLa (Homo sapiens, HeLa, 96 h), 3 µM.

For `Cc1nsc(Nc2cnc3ccccc3n2)c1C(=O)Nc1ccc(C(=O)N2CCN(CC(F)F)CC2)cc1` [Example 157, N-(4-{[4-(2,2-difluoroethyl)piperazin-1-yl]carbonyl}phenyl)-3-methyl-5-(quinoxalin-2-ylamino)-1,2-thiazole-4-carboxamide], the IC50 on CDK2/CycE is over 20 µM; in the assay with HeLa (Homo sapiens, HeLa, 96 h), over 10 µM.

As to `Cc1nsc(Nc2cnc(C(F)(F)F)cn2)c1C(=O)Nc1ccc(OC[C@@H]2CCN(CC(F)F)C2)nc1` [Example 127, N-(6-{[(3R)-1-(2,2-difluoroethyl)pyrrolidin-3-yl]methoxy}pyridin-3-yl)-3-methyl-5-{[5-(trifluoromethyl)pyrazin-2-yl]amino}-1,2-thiazole-4-carboxamide], the IC50 was over 20 µM at CDK2/CycE and 0.46 µM with HeLa (Homo sapiens, HeLa, 96 h).

With `Cc1nsc(Nc2cnc(C(F)(F)F)cn2)c1C(=O)Nc1ccc(OC[C@@H]2CCN(CC(F)(F)F)C2)nc1` [Example 128, 3-Methyl-N-(6-{[(3R)-1-(2,2,2-trifluoroethyl)pyrrolidin-3-yl]methoxy}pyridin-3-yl)-5-{[5-(trifluoromethyl)pyrazin-2-yl]amino}-1,2-thiazole-4-carboxamide], the IC50 at CDK2/CycE was over 20 µM; in the assay with HeLa (Homo sapiens, HeLa, 96 h), 0.23 µM.

`Cc1nsc(Nc2cnc3cc(F)ccc3n2)c1C(=O)Nc1ccc(S(N)(=O)=O)cc1` [Example 149, 5-[(6-fluoroquinoxalin-2-yl)amino]-3-methyl-N-(4-sulfamoylphenyl)-1,2-thiazole-4-carboxamide]: the IC50 at CDK2/CycE is over 20 µM; in the assay on HeLa (Homo sapiens, HeLa, 96 h), over 10 µM.

In the case of `Cc1nsc(Nc2cnc(C(F)(F)F)cn2)c1C(=O)Nc1ccc(F)c(C(N)=O)c1` [Example 151, N-(3-carbamoyl-4-fluorophenyl)-3-methyl-5-{[5-(trifluoromethyl)pyrazin-2-yl]amino}-1,2-thiazole-4-carboxamide], the IC50 at CDK2/CycE was over 20 µM; in the assay on HeLa (Homo sapiens, HeLa, 96 h), 8.9 µM.

On to `Cc1nsc(Nc2cnc3ccccc3n2)c1C(=O)Nc1cccc(C(=O)N[C@H](C(=O)O)[C@@H](C)OC(C)(C)C)c1` [Example 104, O-tert-Butyl-N-[3-({[3-methyl-5-(quinoxalin-2-ylamino)-1,2-thiazol-4-yl]-carbonyl}amino)benzoyl]threonine], for which the IC50 on CDK2/CycE is at least 20 µM; in the assay with HeLa (Homo sapiens, HeLa, 96 h), 6.4 µM.

As for `Cc1nsc(Nc2cc(C#N)ccn2)c1C(=O)Nc1ccc(Oc2cccnc2)nc1` [Example 119, 5-[(4-Cyanopyridin-2-yl)amino]-3-methyl-N-[6-(pyridin-3-yloxy)pyridin-3-yl]-1,2-thiazole-4-carboxamide], the IC50 at CDK2/CycE was at least 20 µM; in the assay with HeLa (Homo sapiens, HeLa, 96 h) it was 5.3 µM.

Regarding `Cc1nsc(Nc2ccc(C#N)cn2)c1C(=O)Nc1ccc(C(=O)OC(C)(C)C)cc1` [Example 98, tert-Butyl 4-[({5-[(5-cyanopyridin-2-yl)amino]-3-methyl-1,2-thiazol-4-yl}carbonyl)-amino]benzoate], the IC50 at CDK2/CycE was at least 20 µM; in the assay with HeLa (Homo sapiens, HeLa, 96 h) it was 0.69 µM.

On to `Cc1nsc(Nc2cnc3ccccc3n2)c1C(=O)Nc1ccc(NC2CC2)nc1` [Example 172, N-[6-(cyclopropylamino)pyridin-3-yl]-3-methyl-5-(quinoxalin-2-ylamino)-1,2-thiazole-4-carboxamide], for which the IC50 is over 20 µM on CDK2/CycE and over 10 µM in the assay on HeLa (Homo sapiens, HeLa, 96 h).

Consider `Cc1nsc(Nc2cnc(C(F)(F)F)cn2)c1C(=O)Nc1ccc(OC[C@H]2CCN(CC(F)(F)F)C2)nc1` (racemic) [Example 133, 3-Methyl-N-(6-{[(SR)-1-(2,2,2-trifluoroethyl)pyrrolidin-3-yl]methoxy}pyridin-3-yl)-5-{[5-(trifluoromethyl)pyrazin-2-yl]amino}-1,2-thiazole-4-carboxamide], for which the IC50 at CDK2/CycE is over 20 µM; with HeLa (Homo sapiens, HeLa, 96 h), 0.42 µM.

With `Cc1nsc(Nc2cnc(C(F)(F)F)cn2)c1C(=O)Nc1ccc(OC[C@H]2CCN(CC(F)F)C2)nc1` [Example 132, N-(6-{[(3S)-1-(2,2-difluoroethyl)pyrrolidin-3-yl]methoxy}pyridin-3-yl)-3-methyl-5-{[5-(trifluoromethyl)pyrazin-2-yl]amino}-1,2-thiazole-4-carboxamide], the IC50 is over 20 µM on CDK2/CycE and 0.45 µM in the assay with HeLa (Homo sapiens, HeLa, 96 h).

Take `Cc1nsc(Nc2cnc(C(F)(F)F)cn2)c1C(=O)Nc1ccc(O[C@@H]2CCN(CC(F)(F)F)C2)nc1` [Example 421, 3-Methyl-N-(6-{[(3R)-1-(2,2,2-trifluoroethyl)pyrrolidin-3-yl]oxy}pyridin-3-yl)-5-{[5-(trifluoromethyl)pyrazin-2-yl]amino}-1,2-thiazole-4-carboxamide]: in the assay with HeLa, the IC50 was 0.55 µM.

In the case of `Cc1nsc(Nc2cnc(C(F)(F)F)cn2)c1C(=O)Nc1ccc(OC[C@@H]2CCCN(CCC(F)(F)F)C2)nc1` [Example 422, 3-Methyl-5-{[5-(trifluoromethyl)pyrazin-2-yl]amino}-N-(6-{[(3R)-1-(3,3,3-trifluoropropyl)piperidin-3-yl]methoxy}pyridin-3-yl)-1,2-thiazole-4-carboxamide], in the assay with HeLa, the IC50 turned out to be 0.37 µM.

`Cc1nsc(Nc2cnc(C(F)(F)F)cn2)c1C(=O)Nc1ccc(O[C@@H]2CCN(CCC(F)(F)F)C2)nc1` [Example 423, 3-Methyl-5-{[5-(trifluoromethyl)pyrazin-2-yl]amino}-N-(6-{[(3R)-1-(3,3,3-trifluoropropyl)pyrrolidin-3-yl]oxy}pyridin-3-yl)-1,2-thiazole-4-carboxamide]: the IC50 with HeLa worked out at 0.41 µM.

As to `Cc1nsc(Nc2cnc(C(F)(F)F)cn2)c1C(=O)Nc1ccc(OCC2CCN(CCF)C2)nc1` (stereo not drawn) [Example 121, N-(6-{[1-(2-fluoroethyl)pyrrolidin-3-yl]methoxy}pyridin-3-yl)-3-methyl-5-{[5-(trifluoromethyl)pyrazin-2-yl]amino}-1,2-thiazole-4-carboxamide], the IC50 in the assay with HeLa (Homo sapiens, HeLa, 96 h) was 0.82 µM.
